Source: US6905841B2, “Enzymatic substrates for detecting Pseudomonas aeruginas” (Biomerieux S.A., priority 1999, dated 2005)
Where two headings read alike, the source gives them in different places.

Columns and labels:
[1] = system: β-alanine aminopeptidase
[2] = system: β-alanine aminopeptidase; remark: listed apart in the source
[3] = system: β-alanine aminopeptidase; conditions: Pseudomonas stutzeri; 10 strains tested
[4] = system: β-alanine aminopeptidase; type: cell-based; conditions: Shigella boydii; 10 strains tested
[5] = system: β-alanine aminopeptidase; conditions: Comamonas testoteroni; 10 strains tested
[6] = system: β-alanine aminopeptidase; type: cell-based; conditions: Shigella flexneri; 10 strains tested
[7] = system: β-alanine aminopeptidase; conditions: Chryseobacterium indologenes; 10 strains tested
[8] = system: β-alanine aminopeptidase; conditions: Oligella urethralis; 10 strains tested
[9] = system: β-alanine aminopeptidase; remark: listed apart in the source
[10] = system: β-alanine aminopeptidase; type: cell-based, Ochrobactrum anthropi
[11] = system: β-alanine aminopeptidase; conditions: 137 strains tested
[12] = system: β-alanine aminopeptidase; conditions: Shigella dysenteriae; 10 strains tested
[13] = system: β-alanine aminopeptidase; experiment: Vitek 2 cards, broth with β-Alanyl p-nitroanilide; conditions: Klebsiella pneumoniae; 2 strains tested; read after 19 hours
[14] = system: β-alanine aminopeptidase; experiment: Vitek 2 cards, broth with β-Alanyl p-nitroanilide; conditions: Citrobacter amalonaticus; 2 strains tested; read after 19 hours
[15] = system: β-alanine aminopeptidase; experiment: Vitek 2 cards, broth with β-Alanyl p-nitroanilide; conditions: Proteus mirabilis; 2 strains tested; read after 19 hours
[16] = system: β-alanine aminopeptidase; experiment: Vitek 2 cards, broth with β-Alanyl p-nitroanilide; conditions: Achromobacter xylosoxydans; 2 strains tested; read after 19 hours
[17] = system: β-alanine aminopeptidase; experiment: Vitek 2 cards, broth with β-Alanyl p-nitroanilide; conditions: Pseudomonas stutzeri; 3 strains tested; read after 19 hours
[18] = system: β-alanine aminopeptidase; experiment: Vitek 2 cards, broth with β-Alanyl p-nitroanilide; conditions: Pseudomonas putida; 1 strain tested; read after 19 hours
[19] = system: β-alanine aminopeptidase; experiment: Vitek 2 cards, broth with β-Alanyl p-nitroanilide; conditions: Stenotrophomonas maltophilia; 2 strains tested; read after 19 hours
[20] = system: β-alanine aminopeptidase; experiment: Vitek 2 cards, broth with β-Alanyl p-nitroanilide; conditions: Moraxella non liquefaciens; 2 strains tested; read after 19 hours
[21] = system: β-alanine aminopeptidase; experiment: Vitek 2 cards, broth with β-Alanyl p-nitroanilide; conditions: Pseudomonas aeruginosa; 4 strains tested; read after 19 hours
[22] = system: β-alanine aminopeptidase; experiment: Vitek 2 cards, broth with β-Alanyl p-nitroanilide; conditions: Serratia liquefaciens; 1 strain tested; read after 19 hours
[23] = system: β-alanine aminopeptidase; experiment: Vitek 2 cards, broth with β-Alanyl p-nitroanilide; conditions: Enterobacter cloacae; 2 strains tested; read after 19 hours
[24] = system: β-alanine aminopeptidase; experiment: Vitek 2 cards, broth with β-Alanyl p-nitroanilide; conditions: Burkholderia vesicularis; 1 strain tested; read after 19 hours
[25] = system: β-alanine aminopeptidase; experiment: Vitek 2 cards, broth with β-Alanyl p-nitroanilide; conditions: Escherichia coli; 2 strains tested; read after 19 hours
[26] = system: β-alanine aminopeptidase; experiment: Vitek 2 cards, broth with β-Alanyl p-nitroanilide; conditions: Acinetobacter baumannii; 2 strains tested; read after 19 hours
[27] = system: β-alanine aminopeptidase; experiment: Vitek 2 cards, broth with β-Alanyl p-nitroanilide; conditions: Citrobacter freundii; 2 strains tested; read after 19 hours
[28] = system: β-alanine aminopeptidase; experiment: Vitek 2 cards, broth with β-Alanyl p-nitroanilide; conditions: Serratia marcescens; 1 strain tested; read after 19 hours
[29] = system: β-alanine aminopeptidase; experiment: Vitek 2 cards, broth with β-Alanyl p-nitroanilide; conditions: Citrobacter koseri; 1 strain tested; read after 19 hours
[30] = system: β-alanine aminopeptidase; experiment: Vitek 2 cards, broth with β-Alanyl p-nitroanilide; conditions: Klebsiella oxytoca; 2 strains tested; read after 19 hours
[31] = system: β-alanine aminopeptidase; experiment: Vitek 2 cards, broth with β-Alanyl p-nitroanilide; conditions: Enterobacter intermedius; 1 strain tested; read after 19 hours
[32] = system: β-alanine aminopeptidase; experiment: Vitek 2 cards, broth with β-Alanyl p-nitroanilide; conditions: Vibrio vulnificus; 1 strain tested; read after 19 hours
[33] = system: β-alanine aminopeptidase; experiment: Vitek 2 cards, broth with β-Alanyl p-nitroanilide; conditions: Sphingomonas paucimobilis; 2 strains tested; read after 19 hours
[34] = system: β-alanine aminopeptidase; experiment: Vitek 2 cards, broth with β-Alanyl p-nitroanilide; conditions: Chryseobacterium meningosepticum; 1 strain tested; read after 19 hours
[35] = system: β-alanine aminopeptidase; experiment: Vitek 2 cards, broth with β-Alanyl p-nitroanilide; conditions: Brevundimonas diminuta; 1 strain tested; read after 19 hours
[36] = system: β-alanine aminopeptidase; experiment: Vitek 2 cards, broth with β-Alanyl p-nitroanilide; conditions: Shewanella algae; 1 strain tested; read after 19 hours
[37] = system: β-alanine aminopeptidase; experiment: Vitek 2 cards, broth with β-Alanyl p-nitroanilide; conditions: Ralstonia pickettii; 1 strain tested; read after 19 hours
[38] = system: β-alanine aminopeptidase; experiment: Vitek 2 cards, broth with β-Alanyl p-nitroanilide; conditions: Proteus vulgaris; 1 strain tested; read after 19 hours
[39] = system: β-alanine aminopeptidase; experiment: Vitek 2 cards, broth with β-Alanyl p-nitroanilide; type: cell-based; conditions: Myroïdes spp.; 1 strain tested; read after 19 hours
[40] = system: β-alanine aminopeptidase; experiment: Vitek 2 cards, broth with β-Alanyl p-nitroanilide; conditions: Providencia stuartii; 1 strain tested; read after 19 hours
[41] = system: β-alanine aminopeptidase; experiment: Vitek 2 cards, broth with β-Alanyl p-nitroanilide; conditions: Enterobacter aerogenes; 2 strains tested; read after 19 hours
[42] = system: β-alanine aminopeptidase; experiment: Vitek 2 cards, broth with β-Alanyl p-nitroanilide; conditions: Salmonella arizonae; 1 strain tested; read after 19 hours
[43] = system: β-alanine aminopeptidase; experiment: Vitek 2 cards, broth with β-Alanyl p-nitroanilide; conditions: Aeromonas hydrophila; 2 strains tested; read after 19 hours
[44] = system: β-alanine aminopeptidase; experiment: Two-substrate semi-solid medium (Trypticase Soy agar), colony color; type: cell-based; conditions: agar also contains 6-Chloro-3-indolyl-β-D-glycopyranoside and 3,5-Dihydroxy-2-naphthoic acid, 35-37° C., 18-24 hours
Protocol: The medium was poured out and inoculated as follows: • 10 dishes with pure cultures corresponding to five strains of Pseudomonas aeruginosa and five of Pseudomonas mendocina, and • 2 dishes with a mixture of two strains, one being of Pseudomonas aeruginosa and the other of Pseudomonas mendocina. The Petri dishes were incubated at 35-37° C. After 18-24 hours of incubation, the color of the colonies was recorded.

[45] = Ralstonia pickettii, 10 strains tested
[46] = Chromobacterium violaceum, 11 strains tested
[47] = Pseudomonas mendocina, 10 strains tested
[48] = Ochrobactrum anthropi, 11 strains tested

## Cc1cc(=O)oc2cc(NC(=O)CCN)ccc12
[1]; Ralstonia pickettii strains
  percentage of positive results: 20%
[1]; [45]
  Borderline results: 0
  Number of negative results: 8
  Number of positive results: 2
[2]; Chromobacterium violaceum strains
  percentage of positive results: 10%
[2]; [46]
  Borderline results: 1
  Number of negative results: 9
  Number of positive results: 1
[3]
  Borderline results: 0
  Number of negative results: 10
  Number of positive results: 0
[4]
  Borderline results: 0
  Number of negative results: 10
  Number of positive results: 0
[5]
  Borderline results: 0
  Number of negative results: 10
  Number of positive results: 0
[6]
  Borderline results: 0
  Number of negative results: 10
  Number of positive results: 0
[7]
  Borderline results: 0
  Number of negative results: 10
  Number of positive results: 0
[8]
  Borderline results: 0
  Number of negative results: 10
  Number of positive results: 0
[9]; Pseudomonas mendocina strains
  percentage of positive results: 100%
[9]; [47]
  Borderline results: 0
  Number of negative results: 0
  Number of positive results: 10
[10]; Ochrobactrum anthropi strains
  percentage of positive results: 100%
[10]; [48]
  Borderline results: 0
  Number of negative results: 0
  Number of positive results: 11
[11]; Pseudomonas aeruginosa strains
  percentage of positive results: 97.8%
[11]; Pseudomonas aeruginosa
  Borderline results: 1
  Number of negative results: 2
  Number of positive results: 134
[12]
  Borderline results: 0
  Number of negative results: 10
  Number of positive results: 0

## NCCC(=O)Nc1ccc([N+](=O)[O-])cc1 [β-Alanyl-p-nitroanilide, β-Alanine p-nitroanilide]
[13]
  Number of negative results: 2
  Number positive results: 0
[14]
  Number of negative results: 2
  Number positive results: 0
[15]
  Number of negative results: 2
  Number positive results: 0
[16]
  Number of negative results: 2
  Number positive results: 0
[17]
  Number of negative results: 3
  Number positive results: 0
[18]
  Number of negative results: 1
  Number positive results: 0
[19]
  Number of negative results: 2
  Number positive results: 0
[20]
  Number of negative results: 2
  Number positive results: 0
[21]
  Number of negative results: 0
  Number positive results: 4
[22]
  Number of negative results: 0
  Number positive results: 1
[23]
  Number of negative results: 2
  Number positive results: 0
[24]
  Number of negative results: 1
  Number positive results: 0
[25]
  Number of negative results: 2
  Number positive results: 0
[26]
  Number of negative results: 2
  Number positive results: 0
[27]
  Number of negative results: 2
  Number positive results: 0
[28]
  Number of negative results: 0
  Number positive results: 1
[29]
  Number of negative results: 1
  Number positive results: 0
[30]
  Number of negative results: 2
  Number positive results: 0
[31]
  Number of negative results: 1
  Number positive results: 0
[32]
  Number of negative results: 1
  Number positive results: 0
[33]
  Number of negative results: 2
  Number positive results: 0
[34]
  Number of negative results: 1
  Number positive results: 0
[35]
  Number of negative results: 1
  Number positive results: 0
[36]
  Number of negative results: 1
  Number positive results: 0
[37]
  Number of negative results: 1
  Number positive results: 0
[38]
  Number of negative results: 1
  Number positive results: 0
[39]
  Number of negative results: 1
  Number positive results: 0
[40]
  Number of negative results: 1
  Number positive results: 0
[41]
  Number of negative results: 2
  Number positive results: 0
[42]
  Number of negative results: 1
  Number positive results: 0
[43]
  Number of negative results: 2
  Number positive results: 0

## CNc1ccc(N(C)C(=O)CCN)cc1 [β-Alanyl-N,N′-dimethyl-p-phenylene-diamine]
[44]; Pseudomonas aeruginosa
  color of the colonies: Blue colonies with a blue halo
[44]; Pseudomonas mendocina
  color of the colonies: purple colonies with a blue halo
